Assays:
CDK2/Cyclin E2 = CDK2/Cyclin E2 (Homo sapiens, UniProt P24941); experiment: CDK2/CyclinE2 Enzymatic Activity Assay (TR-FRET); type: biochemical; conditions: CDK2/CyclinE2 1 nM, ATP 1 mM, read-out: CDK2_El IC50
Summary of the method: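 TR-FRET kinase assay with insect-cell CDK2/Cyclin E2 (1 nM) phosphorylating ULight-4E-BP1 (50 nM) at 1 mM ATP in HEPES pH 7.4 buffer; 9-dose 3-fold series preincubated 20 min, reaction started with 10 mM MgCl2, 45 min at 37 °C. EDTA quench, Eu-anti-P-4E-BP1 detection; IC50 from 4-parameter fit.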

CDK4/Cyclin D1 = target: T1, CDK4/Cyclin D1 (Homo sapiens, UniProt P11802); experiment: CDK4/CyclinD1 Enzymatic Activity Assay (TR-FRET); type: biochemical; conditions: CDK4/CyclinD1 1 nM, ATP 2 mM, read-out: CDK4_D1 IC50
T1 construct: purchased ProQinase; host or cells: insect cell
Summary of the method: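 Insect-cell-expressed CDK4/Cyclin D1 (1 nM) phosphorylated ULight-4E-BP1 (100 nM) with 2 mM ATP in HEPES pH 7.4 buffer with TCEP, after 20 min compound preincubation; 10 mM MgCl2 started the reaction, run 45 min at 37 °C. EDTA/Eu-anti-phospho-4E-BP1 TR-FRET readout; 9-point IC50 by four-parameter fit.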

pRB in OVCAR3 cells = experiment: pRB ICW Assay in OVCAR3 Cells; type: cell-based; conditions: Homo sapiens, OVCAR-3, incubated with compound for 2 hours, read-out: OVCAR3 p-RB ICW IC50
Summary of the method: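 OVCAR3 cells seeded overnight, then exposed for 2 h at 37 °C to a 9-point half-log compound dilution series in duplicate; 10 μM reference compound defined maximum inhibition. Fixed, permeabilised cells stained in-cell western style with anti-phospho-RB antibody plus DRAQ5 nuclear stain; fluorescence read at 700 and 800 nm.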

T1 sequence (P11802 whole entry): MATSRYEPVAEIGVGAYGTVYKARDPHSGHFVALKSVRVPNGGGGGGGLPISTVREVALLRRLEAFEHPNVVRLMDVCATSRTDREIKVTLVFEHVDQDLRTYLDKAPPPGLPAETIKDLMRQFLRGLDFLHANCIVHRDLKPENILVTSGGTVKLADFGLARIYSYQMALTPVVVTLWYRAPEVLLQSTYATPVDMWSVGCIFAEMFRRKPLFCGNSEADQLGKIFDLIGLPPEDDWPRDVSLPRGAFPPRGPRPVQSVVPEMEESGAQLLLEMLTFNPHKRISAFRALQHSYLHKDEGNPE
T1 sequence (P24385 whole entry partner): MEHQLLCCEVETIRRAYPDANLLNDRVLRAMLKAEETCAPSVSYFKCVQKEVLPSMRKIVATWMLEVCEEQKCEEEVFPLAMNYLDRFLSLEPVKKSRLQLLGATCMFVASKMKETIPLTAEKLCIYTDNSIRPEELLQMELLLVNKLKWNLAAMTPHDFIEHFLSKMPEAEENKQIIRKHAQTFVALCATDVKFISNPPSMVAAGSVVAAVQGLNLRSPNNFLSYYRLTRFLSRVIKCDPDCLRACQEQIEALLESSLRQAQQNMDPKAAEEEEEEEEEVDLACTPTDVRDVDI

Row | SMILES | IC50 (CDK2/Cyclin E2) [nM] | IC50 (CDK4/Cyclin D1) [nM] | IC50 (pRB in OVCAR3 cells) [nM]
1 | CCC12CC(N)CN1C(=O)c1cc(-c3nc(N[C@H]4CCN(S(=O)(=O)c5cnn(C)c5)C[C@H]4C)ncc3C(F)(F)F)sc12 (stereo partly drawn) [Example 46, 7-Amino-8a-ethyl-2-(2-(((3R,4S)-3-methyl-1-((1-methyl-1H-pyrazol-4-yl)sulfonyl)piperidin-4-yl)amino)-5-(trifluoromethyl)pyrimidin-4-yl)-6,7,8,8a-tetrahydro-4H-thieno[2,3-a]pyrrolizin-4-one] | ≤ 100 | ≤ 100 | ≤ 100
2 | CS(=O)(=O)N1CCC(Nc2ncc(C(F)(F)F)c(-c3cc4c(s3)C3(C5CCC5)CCCN3C4=O)n2)CC1 (stereo not drawn) [Example 23, 8a-Cyclobutyl-2-(2-((1-(methylsulfonyl)piperidin-4-yl)amino)-5-(trifluoromethyl)pyrimidin-4-yl)-6,7,8,8a-tetrahydro-4H-thieno[2,3-a]pyrrolizin-4-one] | ≤ 100 | ≤ 100 | 100 to 500
3 | CS(=O)(=O)N1CCC(Nc2ncc(C(F)(F)F)c(-c3cc4c(s3)C3(C5CC(O)C5)CCCN3C4=O)n2)CC1 (stereo not drawn) [Example 25, 8a-(3-Hydroxycyclobutyl)-2-(2-((1-(methylsulfonyl)piperidin-4-yl)amino)-5-(trifluoromethyl)pyrimidin-4-yl)-6,7,8,8a-tetrahydro-4H-thieno[2,3-a]pyrrolizin-4-one] | ≤ 100 | ≤ 100 | ≤ 100
4 | CC(C)C12CCCN1C(=O)c1cc(-c3nc(NC4CCN(S(C)(=O)=O)CC4)ncc3C(F)(F)F)sc12 (stereo not drawn) [Example 11, 8a-Isopropyl-2-(2-((1-(methylsulfonyl)piperidin-4-yl)amino)-5-(trifluoro-methyl)pyrimidin-4-yl)-6,7,8,8a-tetrahydro-4H-thieno[2,3-a]pyrrolizin-4-one] | ≤ 100 | ≤ 100 | 100 to 500

More lines, now with the values ahead:

Row | IC50 (CDK2/Cyclin E2) [nM] | IC50 (CDK4/Cyclin D1) [nM] | IC50 (pRB in OVCAR3 cells) [nM] | SMILES
5 | ≤ 100 | ≤ 100 | ≤ 100 | CCC12CC(NC)CN1C(=O)c1cc(-c3nc(N[C@@H]4CCN(S(C)(=O)=O)C[C@H]4F)ncc3C(F)(F)F)sc12 (stereo partly drawn) [Example 47, 8a-Ethyl-2-(2-(((3R,4R)-3-fluoro-1-(methylsulfonyl)piperidin-4-yl)amino)-5-(trifluoromethyl)pyrimidin-4-yl)-7-(methylamino)-6,7,8,8a-tetrahydro-4H-thieno[2,3-a]pyrrolizin-4-one]
6 | ≤ 100 | ≤ 100 | 100 to 500 | CS(=O)(=O)N1CCC(Nc2ncc(C(F)(F)F)c(-c3cc4c(s3)C3(CF)CCCN3C4=O)n2)CC1 (stereo not drawn) [Example 18, 8a-(Fluoromethyl)-2-(2-((1-(methylsulfonyl)piperidin-4-yl)amino)-5-(trifluoromethyl)pyrimidin-4-yl)-6,7,8,8a-tetrahydro-4H-thieno[2,3-a]pyrrolizin-4-one]
7 | ≤ 100 | ≤ 100 | ≤ 100 | CCC12CC(NC)CN1C(=O)c1cc(-c3nc(N[C@H]4CCN(S(=O)(=O)c5cnn(C)c5)C[C@H]4C)ncc3C(F)(F)F)sc12 (stereo partly drawn) [Example 44, 8a-Ethyl-2-(2-(((3R,4S)-3-methyl-1-((1-methyl-1H-pyrazol-4-yl)sulfonyl)piperidin-4-yl)amino)-5-(trifluoromethyl)pyrimidin-4-yl)-7-(methylamino)-6,7,8,8a-tetrahydro-4H-thieno[2,3-a]pyrrolizin-4-one]

From patent publication US11939340B2, “CDK inhibitors and their use as pharmaceuticals” (Prelude Therapeutics Incorporated, priority 2022, dated 2024)
